Reference: patent US12570606B2, “Myeloperoxidase imaging agents” (The General Hospital Corporation, priority 2016, dated 2026)
Read-outs that look alike come from different tables or passages of the source.

What was measured:
[1] = Pharmacokinetics and biodistribution after i.v. injection; format: in vivo, wild-type C57BL/6 mice; conditions: for half-life: C57BL/6, mouse, blood, iv, i.v. tail vein
Procedure: The pharmacokinetic and biodistribution of Compound 9 was evaluated in wild-type C57BL/6 mice. After systemic intravenous (i.v.) injection via the tail vein, blood samples were collected to determine clearance rate of Compound 9 from the blood. The major organs of the mouse were harvested and the radioactivity was measured.

MPO = target: T1, MPO (Homo sapiens, UniProt P05164); assay: MPO-PET matrigel implantation imaging in mice; format: in vivo, mouse
T1 sequence (P05164 49-745): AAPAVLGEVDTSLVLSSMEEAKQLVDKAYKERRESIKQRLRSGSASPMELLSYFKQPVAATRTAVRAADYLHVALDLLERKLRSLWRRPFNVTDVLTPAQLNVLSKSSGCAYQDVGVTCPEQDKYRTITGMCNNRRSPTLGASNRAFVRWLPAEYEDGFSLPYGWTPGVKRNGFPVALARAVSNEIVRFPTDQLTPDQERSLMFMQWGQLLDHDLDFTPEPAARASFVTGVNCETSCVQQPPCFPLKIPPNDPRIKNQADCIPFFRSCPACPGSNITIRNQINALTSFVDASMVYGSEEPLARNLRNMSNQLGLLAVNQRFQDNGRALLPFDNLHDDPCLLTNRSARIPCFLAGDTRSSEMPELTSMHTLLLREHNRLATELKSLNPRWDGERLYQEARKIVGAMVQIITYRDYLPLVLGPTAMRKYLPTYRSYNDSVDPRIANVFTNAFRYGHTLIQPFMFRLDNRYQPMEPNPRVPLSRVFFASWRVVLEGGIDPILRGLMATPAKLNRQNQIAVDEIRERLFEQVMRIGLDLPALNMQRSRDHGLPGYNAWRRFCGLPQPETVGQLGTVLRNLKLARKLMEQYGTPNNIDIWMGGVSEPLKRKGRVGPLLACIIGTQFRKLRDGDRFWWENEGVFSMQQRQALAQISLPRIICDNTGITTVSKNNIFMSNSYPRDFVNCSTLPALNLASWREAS
Procedure: 300 μL of 1:1 mixture of matrigel and minimal essential medium (MEM) containing GOX and/or different concentrations of MPO (0, 15 μL, 30 μL) was injected subcutaneously into the ventral aspect of the thighs of the mouse. After 30 min, 300-600 μCi of MPO Compound 9 was injected intravenously. After 2 h, the mice were scanned using PET scanning.
To validate the efficacy of the MPO PET agents for in vivo applications, matrigel implantation experiments were performed by embedding MPO in matrigel along with glucose oxidase (GOX) as H2O2 donor. Matrigel is a gelatinous protein mixture that is liquid at 0° C. but forms a gel at body temperature while remaining diffusible to molecules from the bloodstream when injected into living animals (see e.g., Chen et al, Radiology, 2006, 240(2):473-481). The MPO/matrigel mixtures were injected subcutaneously to the thighs of the mice followed by injection of the MPO PET tracers 30 min later. […] The signal of MPO side was around 1.7 fold higher compared to that of control side.
To verify the specificity of Compound 9 over MPO, different concentrations of MPO (0, 15 μL, 30 μL) were embedded in matrigel for the implantation experiments.

[2] = Stability of Compound 9 formulated for injection at room temperature; format: physicochemical
Procedure: Radiolabeling chemistry was performed using automated synthesis of the following steps: (1) azeotropic drying of [^18F]-fluoride; (2) [^18F]-fluorination; (3) Boc deprotection; and (4) HPLC purification, followed by solid-phase formulation of the final product. The synthesis module was operated in the following sequences with numerical references to FIG. 1. Automated syntheses were performed on a Synthra (Hamburg, Germany) model RN Plus automated synthesizer module. Boc-deprotection was conducted with 0.4 mmol aqueous HCl at 95° C. added directly to the labeling reaction mixture without any prior purification. The two-step synthesis can be finished in approximately 80 min with the total radiochemical yield of 47% after decay correction. • 1. [^18F]-Fluoride, received from PETNET (Waltham, Mass.), was produced by the ^18O(p,n)^18F nuclear reaction and delivered to the reagent vial A (A) of the radiosynthesis module via syringe after mixing with tetrabutylammonium bicarbonate ([…], 75 mM in H2O, 250 μL) and acetonitrile (MeCN, 300 μL). • 2. Automated synthesis began with the addition the [^18F]-fluoride/TBAB mixture (A) and MeCN (B) to the reaction vessel 1 (RV1). • 3. […] The eluent was monitored by UV (λ=254 nm) and radiochemical detectors connected in series. • 8. […]

O=C(Cc1c[nH]c2ccc(O)cc12)NC(Cc1c[nH]c2ccc(O)cc12)C(=O)NCCOCCOCC[18F] (stereo not drawn) [Compound 9]
half-life ([1]; two-phase exponential decay model, read-out: Blood short (fast) half-life): 0.26 min
half-life ([1]; two-phase exponential decay model, read-out: Blood slow half-life): 4.66 min
Biodistribution of radioactivity in organs ([1]; major organs harvested after i.v. injection): the liver and kidney showed the highest radioactivity, followed by bone and lymph
Share of clearance accounted for by the fast half-life ([1]; two-phase exponential decay model): 94.7%
PET signal versus MPO concentration (MPO; MPO 0, 15 μL, 30 μL embedded in matrigel): linear increase in signal
Background, organ uptake and defluorination (MPO; matrigel PET imaging in mice): high ratio of signal to background, lower liver and heart uptake and no observed defluorination
PET signal of MPO side compared to control side (MPO; matrigel with GOX+MPO vs GOX only in mouse thighs, scan 2 h after i.v. tracer): around 1.7 fold
Time stable on storage ([2]; 0.5% (w/v) aqueous sodium-ascorbate in saline): at least 4 h
Stability on storage ([2]; 1×PBS for injection): degraded over time
